Data set [1] is described as follows: Degradation in aqueous solution of pH about 3 during HPLC purification and lyophilization. The following applies: during HPLC purification and subsequent lyophilization.
Data set [2] deals with recombinant human fibroblast activation protein (FAP) (Homo sapiens (Human), UniProt Q12884). Nature of the data set: In vitro assay fibroblast activation protein IC50 (Example 21). The format is biochemical.
Data set [3] concerns the target recombinant human dipeptidyl peptidase IV (DPPIV) (Homo sapiens (Human), UniProt P27487). Nature of the data set: In vitro assay dipeptidyl peptidase IV IC50 (Example 21). In kind it is biochemical. On the procedure:
The purpose of this assay is to determine the IC50 of various inhibitors against recombinant human dipeptidyl peptidase IV (DPPIV), fibroblast activation protein (FAP) or prolyl oligopeptidase (PREP).
The assays are conducted in the following steps: • 1 Dissolve the compound in DMSO to a final concentration of 100 mM. From this, prepare a 1 mM stock at pH 7.5 in 50 mM Tris, 140 mM NaCl Buffer (FAP)/pH 7.5 in 25 mM Tris, 250 mM NaCl Buffer/[…]. • 2. Serial dilute (1:10) the 1 mM compound stocks prepared previously into the appropriate assay buffer (FAP: 50 mM Tris, 140 mM NaCl, pH 7.5/PREP: 25 mM Tris, 0.25 M NaCl, pH 7.5/DPPIV: 25 mM Tris, pH 8.0) to one row of a 96-well plate. • 3. […] Dilute the enzymes into their appropriate assay buffers. The final enzyme concentrations should be 0.1, 1.2, and 0.6 nM for DPPIV, FAP and PREP respectively. Add 180 μL to each well needed in columns 2-10. Column 1(A,B,C) should be prepared with 200 μl of appropriate assay buffer as control. Column 1(D,E,F,G,H) should be prepared with 20 μl of appropriate assay buffer and 180 ul enzyme as no inhibitor control. • 5. Add 20 μL of the compound of interest from the dilution plate prepared in step 2 to columns 2-10 of the assay plate where appropriate. Each sample should be tested in triplicate. Allow this to incubate for 10 minutes at room temperature, shaking the plate for the first two minutes. • 6. Add 10 μL of 20× substrate prepared in step 3 to each well and allow this to incubate for 15 minutes at room temperature, shaking the plate for the first two minutes. • 7. Read the fluorescence at λex: 380, λem: 460. (DPcore=[dAla|dSer|Gly]-[boroPro|Pro-nitrile], XXaa=alpha-amino acid)

The target of data set [4] is recombinant human prolyl oligopeptidase (PREP) (Homo sapiens (Human), UniProt P48147). Nature of the data set: In vitro assay prolyl oligopeptidase IC50 (Example 21). In kind it is biochemical.
A short description of data set [5]: Solubility in water after lyophilization.
For data set [6] the following is noted: lyophilized powder reconstituted before administration; cited from earlier work.
A short description of data set [7]: Stability of bortezomib with excipients in water, propyleneglycol (PG) or butylene glycol (BG) at 1 mg/mL, 50° C. Conditions: in the absence of N-Acetyl-L-methionine. The format is physicochemical. On the procedure:
In Examples 1-3 below, Tables 1, 2 and 3 summarize the effectiveness of sulfur compounds in stabilizing bortezomib such as against oxidation and decomposition reactions. For each of the following Examples 1-3, the following procedures were used: Samples preparation: 100 mg of the API (active pharmaceutical ingredient) was suspended into 100 mL of water or other ratioed solvents, mixed well by using a vortex mixer and sonicator (with gentle warm if necessary) to make a 1 mg/mL of solution A. 10 mg of each excipient was weighed into avial, and 1 mL of solution A was added, mixed well to give the test solution B (10:1 of excipient/API). Took 100 μL of solution B and diluted into 1 mL with solution A to give the test solution C (1:1 of excipient/API). Took 100 μL of solution C and diluted into 1 mL with solution A to give the test solution D (0.1:1 of excipient/API). For solid powderform of Bortezomib with the excipients, method in US 2005/0282742 A1 was adopted. […]
Aqueous formulations of bortezomib together with a number of sulfur-containing compounds in varying weight ratios were evaluated for stability over time based on purity of Bortezomib in water, propyleneglycol (PG) or butylene glycol (BG) at 1 mg/mL, 50° C.

A further data set is described as follows: physchem. Conditions: water.

Where two headings read alike, the source gives them in different places.

Sequence of recombinant human fibroblast activation protein (FAP) (Q12884 whole entry): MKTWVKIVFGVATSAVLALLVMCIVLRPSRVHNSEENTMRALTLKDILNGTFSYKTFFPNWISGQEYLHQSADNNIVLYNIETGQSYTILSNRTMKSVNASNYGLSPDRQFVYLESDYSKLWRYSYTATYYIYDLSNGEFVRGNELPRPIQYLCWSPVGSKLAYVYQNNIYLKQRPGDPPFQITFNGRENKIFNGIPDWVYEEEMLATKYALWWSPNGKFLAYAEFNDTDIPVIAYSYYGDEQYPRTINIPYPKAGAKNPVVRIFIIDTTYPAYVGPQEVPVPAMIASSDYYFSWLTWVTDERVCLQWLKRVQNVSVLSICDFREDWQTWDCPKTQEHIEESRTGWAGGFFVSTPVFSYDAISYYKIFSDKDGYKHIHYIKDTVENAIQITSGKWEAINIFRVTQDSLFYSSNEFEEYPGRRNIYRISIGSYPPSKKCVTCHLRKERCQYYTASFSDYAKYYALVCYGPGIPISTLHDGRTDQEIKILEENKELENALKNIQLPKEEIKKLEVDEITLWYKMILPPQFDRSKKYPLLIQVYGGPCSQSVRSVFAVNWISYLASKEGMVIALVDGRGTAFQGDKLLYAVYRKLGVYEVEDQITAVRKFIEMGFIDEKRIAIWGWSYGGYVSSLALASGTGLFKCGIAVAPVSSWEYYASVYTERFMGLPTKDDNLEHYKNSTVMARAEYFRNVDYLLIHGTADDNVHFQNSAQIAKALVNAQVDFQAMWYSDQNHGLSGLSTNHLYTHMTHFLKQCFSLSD
Sequence of recombinant human dipeptidyl peptidase IV (DPPIV) (P27487 whole entry): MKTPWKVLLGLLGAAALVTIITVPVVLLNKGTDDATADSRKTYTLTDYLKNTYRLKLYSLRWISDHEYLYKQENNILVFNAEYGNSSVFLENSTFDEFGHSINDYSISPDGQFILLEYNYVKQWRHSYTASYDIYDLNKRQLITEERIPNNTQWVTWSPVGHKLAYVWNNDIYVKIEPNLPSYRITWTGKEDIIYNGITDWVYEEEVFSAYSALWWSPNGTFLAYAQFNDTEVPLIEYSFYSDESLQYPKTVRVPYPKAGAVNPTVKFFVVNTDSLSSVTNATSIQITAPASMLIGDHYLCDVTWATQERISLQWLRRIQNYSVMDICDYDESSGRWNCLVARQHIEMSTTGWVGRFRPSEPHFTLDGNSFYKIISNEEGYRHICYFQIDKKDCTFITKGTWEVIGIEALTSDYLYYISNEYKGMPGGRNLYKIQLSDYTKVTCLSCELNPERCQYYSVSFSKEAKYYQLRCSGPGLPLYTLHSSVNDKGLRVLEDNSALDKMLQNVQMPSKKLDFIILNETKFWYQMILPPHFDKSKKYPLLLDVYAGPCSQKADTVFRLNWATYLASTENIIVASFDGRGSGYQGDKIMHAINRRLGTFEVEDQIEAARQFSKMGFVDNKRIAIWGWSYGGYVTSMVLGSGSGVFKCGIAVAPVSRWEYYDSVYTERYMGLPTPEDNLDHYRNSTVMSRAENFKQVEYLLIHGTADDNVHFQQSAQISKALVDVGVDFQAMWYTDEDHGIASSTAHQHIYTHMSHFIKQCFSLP
Sequence of recombinant human prolyl oligopeptidase (PREP) (P48147 whole entry): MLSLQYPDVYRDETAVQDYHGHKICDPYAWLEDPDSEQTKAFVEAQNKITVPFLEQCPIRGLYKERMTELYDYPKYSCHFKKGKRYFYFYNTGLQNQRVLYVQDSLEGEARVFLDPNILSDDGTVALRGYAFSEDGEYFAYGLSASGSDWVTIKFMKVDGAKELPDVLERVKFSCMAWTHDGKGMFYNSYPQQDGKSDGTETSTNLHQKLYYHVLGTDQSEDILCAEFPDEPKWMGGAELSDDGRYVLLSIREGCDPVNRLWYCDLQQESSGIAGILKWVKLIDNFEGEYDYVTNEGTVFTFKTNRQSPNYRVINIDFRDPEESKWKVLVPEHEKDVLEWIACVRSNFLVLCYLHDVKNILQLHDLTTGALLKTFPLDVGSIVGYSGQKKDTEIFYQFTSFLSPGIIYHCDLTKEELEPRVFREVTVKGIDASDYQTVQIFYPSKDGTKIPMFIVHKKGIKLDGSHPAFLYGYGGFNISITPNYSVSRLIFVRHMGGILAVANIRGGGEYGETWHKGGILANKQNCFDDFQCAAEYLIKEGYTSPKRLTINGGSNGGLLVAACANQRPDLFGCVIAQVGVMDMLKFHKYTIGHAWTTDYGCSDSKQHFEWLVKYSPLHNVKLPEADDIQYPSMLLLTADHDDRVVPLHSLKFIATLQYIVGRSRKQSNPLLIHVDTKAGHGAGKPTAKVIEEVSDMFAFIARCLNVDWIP

With `C[C@@H](NC(=O)c1ccc(CNC(=O)CN2CCN3CCN4CCN(CC2)CC(=O)[O][Lu]([O]C(=O)C3)[O]C(=O)C4)cc1)C(=O)N1CCC[C@H]1B(O)O` [6555LU], in data set [1], the “degradation in aqueous solution” value is given as “did not observe any sign of degradation”. The values for the half-inhibitory concentration (IC50) in data set [2], in data set [3] and in data set [4] were 0.014 µM, > 100 µM and 3.4 µM, respectively. In addition, in data set [5], the solubility in water is given as > 50 mg/mL.
Consider `CC(C)C[C@H](NC(=O)[C@H](Cc1ccccc1)NC(=O)c1cnccn1)B(O)O` [Bortezomib, reference compound], for which the “time the reconstituted solution is sufficiently stable” value in data set [6] is listed as “up to 8 hours”. Also, the decomposition of bortezomib in data set [7] was 67%.
In the case of `C[C@@H](NC(=O)[C@H]1CC[C@H](CNC(=O)CN2CCN(CC(=O)O)CCN(CC(=O)O)CCN(CC(=O)O)CC2)CC1)C(=O)N1CCC[C@H]1B(O)O` [compound 6952], the “degradation in aqueous solution” value in data set [1] is recorded as “did not observe any sign of degradation”. Besides, the concentration for half-maximal inhibition (IC50) was 0.0047 µM in data set [2] (Z-Gly-Pro-AMC, 1.2 nM enzyme); > 100 µM in data set [3] (Gly-Pro-AMC, 0.1 nM enzyme); 4.6 µM in data set [4] (Z-Gly-Pro-AMC, 0.6 nM enzyme). For the same compound, the solubility in “physchem” was > 50 mg/mL.

In general, IC50 refers to the concentration needed to halve the response being measured. A word on the solubility: it is the dissolved amount per volume that the medium holds. A higher solubility goes with a readily soluble substance.

These data come from patent US20240207292A1, “BORONIC ACID COMPOUNDS, COMPOSITIONS AND METHODS” (Trustees of Tufts College, priority 2021, published 2024).
